{"source": "ChEMBL document CHEMBL6178003", "about": "“Reducing Cardiovascular Side Effects of DMT Using Beta-Blockers” (ACS Med Chem Lett, 2025)", "key": {"[1]": {"assay": "Half-life in human", "type": "ADME"}, "[2]": {"assay": "Half-life in iv dosed human", "type": "ADME, organism-based", "conditions": "in vivo"}}, "data": [{"smiles": "CC1(C)OC[C@@H](COC(=O)CCc2ccc(OC[C@@H](O)CNCCNC(=O)N3CCOCC3)cc2)O1", "note": "[LANDIOLOL]", "values": [{"measurement": "half-life", "setting": "[1]", "result": "~4", "unit": "min"}]}, {"smiles": "CCCC(=O)OCOC(=O)C1=C(C)NC(C)=C(C(=O)OC)C1c1cccc(Cl)c1Cl", "note": "(centres undefined) [CLEVIDIPINE]", "values": [{"measurement": "half-life", "setting": "[1]", "result": "~1", "unit": "min"}]}, {"smiles": "CN(C)CCc1c[nH]c2ccccc12", "note": "[N,N-DIMETHYLTRYPTAMINE]", "values": [{"measurement": "half-life", "setting": "[1]", "result": "~10", "unit": "min"}]}, {"smiles": "COC(=O)CCc1ccc(OCC(O)CNC(C)C)cc1", "note": "(centres undefined) [ESMOLOL]", "values": [{"measurement": "half-life", "setting": "[2]", "result": "~9", "unit": "min"}]}]}
